# Data taken from patent US11807644B2 (PMV Pharmaceuticals, Inc., priority 2020, dated 2023).
# Biological target: T1, recombinant His-tag Y220C p53 DBD protein (Homo sapiens, UniProt P04637, Y220C)
# T1 construct: recombinant His-tag Y220C p53 DBD protein (amino acids #˜94-312)
# Test: In vitro DNA binding activity assay (TR-FRET): binding of His-tag Y220C p53 DBD to biotin-labeled consensus DNA
# Assay type: biochemical
# Conditions: SC150 = concentration to increase DNA binding by […], His-tag Y220C p53 DBD, biotin-labeled consensus DNA
row,Compound,Y220C SC150 (μM)
1,"CN1CCC(Nc2cccc3c2cc(-c2nnc(CNc4ccc(S(C)(=O)=O)cc4)o2)n3CC(F)(F)F)CC1 [Compound 111B, 2-(5-{[(4-methanesulfonylphenyl)amino]methyl}-1,3,4-oxadiazol-2-yl)-N-(1-methylpiperidin-4-yl)-1-(2,2,2-trifluoroethyl)-1H-indol-4-amine]",** (** = 0.1 μM ≤ SC150 < 0.5 μM)
2,"COCCN1CC[C@@H](Nc2cccc3c2cc(-c2noc(CNC(=O)c4ccn(C(C)(C)C)c4)n2)n3CC(F)(F)F)[C@@H](F)C1 [Compound 337B, 1-tert-butyl-N-{[3-(4-{[(3S,4R)-3-fluoro-1-(2-methoxyethyl)piperidin-4-yl]amino}-1-(2,2,2-trifluoroethyl)-1H-indol-2-yl)-1,2,4-oxadiazol-5-yl]methyl}-1H-pyrrole-3-carboxamide]",* (* = 0 μM ≤ SC150 < 0.1 μM)
3,"CN1CC[C@H](Nc2cccc3c2cc(-c2nnc(CNC(=O)c4cccs4)s2)n3CC(F)(F)F)[C@H](F)C1 (racemic) [Compound 30B, (+/−)-N-{[5-(4-{[(3R,4S)-3-fluoro-1-methylpiperidin-4-yl]amino}-1-(2,2,2-trifluoroethyl)-1H-indol-2-yl)-1,3,4-thiadiazol-2-yl]methyl}thiophene-2-carboxamide]",* (* = 0 μM ≤ SC150 < 0.1 μM)
4,"COc1cc(S(C)(=O)=O)ccc1NCc1nc(-c2cc3c(N[C@@H]4CCN(C)C[C@@H]4F)cccc3n2CC(F)(F)F)no1 (racemic) [Compound 183B, (+/−)-N-[(3R,4S)-3-fluoro-1-methylpiperidin-4-yl]-2-(5-{[(4-methanesulfonyl-2-methoxyphenyl)amino]methyl}-1,2,4-oxadiazol-3-yl)-1-(2,2,2-trifluoroethyl)-1H-indol-4-amine]",* (* = 0 μM ≤ SC150 < 0.1 μM)
5,"CN1CC[C@@H](Nc2cccc3c2cc(-c2noc(CNC(=O)c4ccn(C(C)(C)CF)n4)n2)n3CC(F)(F)F)[C@@H](F)C1 [Compound 548B, N-{[3-(4-{[(3S,4R)-3-fluoro-1-methylpiperidin-4-yl]amino}-1-(2,2,2-trifluoroethyl)-1H-indol-2-yl)-1,2,4-oxadiazol-5-yl]methyl}-1-(1-fluoro-2-methylpropan-2-yl)-1H-pyrazole-3-carboxamide]",* (* = 0 μM ≤ SC150 < 0.1 μM)
6,"CCn1ccc(C(=O)NCc2nc(-c3cc4c(N[C@@H]5CCN(C)C[C@@H]5F)cccc4n3CC(F)(F)F)no2)c1 [Compound 186B, 1-ethyl-N-{[3-(4-{[(3S,4R)-3-fluoro-1-methylpiperidin-4-yl]amino}-1-(2,2,2-trifluoroethyl)-1H-indol-2-yl)-1,2,4-oxadiazol-5-yl]methyl}-1H-pyrrole-3-carboxamide]",* (* = 0 μM ≤ SC150 < 0.1 μM)
7,"COC1CCC(n2ccc(C(=O)NCc3nc(-c4cc5c(N[C@@H]6CCN(C)C[C@@H]6F)cccc5n4CC(F)(F)F)no3)c2)C1 (stereo in doubt) [Compound 359B, N-{[3-(4-{[(3S,4R)-3-fluoro-1-methylpiperidin-4-yl]amino}-1-(2,2,2-trifluoroethyl)-1H-indol-2-yl)-1,2,4-oxadiazol-5-yl]methyl)-1-[(1R,3S)-3-methoxycyclopentyl]-1H-pyrrole-3-carboxamide]",* (* = 0 μM ≤ SC150 < 0.1 μM)
8,"CN1CC[C@@H](Nc2cccc3c2cc(-c2noc(CNC(=O)c4cccs4)n2)n3CC(F)(F)F)[C@@H](F)C1 (racemic) [Compound 175B, (+/−)-N-{[3-(4-{[(3R,4S)-3-fluoro-1-methylpiperidin-4-yl]amino}-1-(2,2,2-trifluoroethyl)-1H-indol-2-yl)-1,2,4-oxadiazol-5-yl]methyl}thiophene-2-carboxamide]",* (* = 0 μM ≤ SC150 < 0.1 μM)
9,"CN1CCC(Nc2cccc3c2cc(-c2nnc(CNC(=O)C4CC4(F)F)s2)n3CC(F)(F)F)CC1 (racemic) [Compound 32B, (+/−)-2,2-difluoro-N-[(5-{4-[(1-methylpiperidin-4-yl)amino]-1-(2,2,2-trifluoroethyl)-1H-indol-2-yl}-1,3,4-thiadiazol-2-yl)methyl]cyclopropane-1-carboxamide]",** (** = 0.1 μM ≤ SC150 < 0.5 μM)
10,"CN1CC[C@@H](Nc2cccc3c2cc(-c2ncc(CN)s2)n3CC(F)(F)F)[C@@H](F)C1 (racemic) [Compound 96B, (+/−)-2-[5-(aminomethyl)-1,3-thiazol-2-yl]-N-[(3R,4S)-3-fluoro-1-methylpiperidin-4-yl]-1-(2,2,2-trifluoroethyl)-1H-indol-4-amine]",**** (**** = 1 μM ≤ SC150 < 10 μM)
11,"CN1CC[C@@H](Nc2cccc3c2cc(-c2noc(CNC(=O)c4cnn(-c5ccccc5)c4)n2)n3CC(F)(F)F)[C@@H](F)C1 [Compound 308B, N-{[3-(4-{1[(3S,4R)-3-fluoro-1-methylpiperidin-4-yl]amino}-1-(2,2,2-trifluoroethyl)-1H-indol-2-yl)-1,2,4-oxadiazol-5-yl]methyl}-1-phenyl-1H-pyrazole-4-carboxamide]",* (* = 0 μM ≤ SC150 < 0.1 μM)
12,CN1CC[C@@H](Nc2cccc3c2cc(-c2noc(CNC(=O)[C@@H]4C[C@H]4c4ccccc4)n2)n3CC(F)(F)F)[C@@H](F)C1 (racemic) [Compound 185B],* (* = 0 μM ≤ SC150 < 0.1 μM)
13,"CCN1CC[C@@H](Nc2cccc3c2cc(-c2noc(CNC(=O)c4ccn(C5CCOCC5)c4)n2)n3CC(F)(F)F)[C@@H](F)C1 [Compound 333B, N-{[3-(4-{[(3S,4R)-1-ethyl-3-fluoropiperidin-4-yl]amino}-1-(2,2,2-trifluoroethyl)-1H-indol-2-yl)-1,2,4-oxadiazol-5-yl]methyl}-1-(oxan-4-yl)-1H-pyrrole-3-carboxamide]",* (* = 0 μM ≤ SC150 < 0.1 μM)
14,"CN1CC[C@H](F)[C@H](Nc2cccc3c2cc(-c2noc(CNC(=O)c4ccn(C5(C)CCOCC5)c4)n2)n3CC(F)(F)F)C1 [Compound 403B, N-{[3-(4-{[(3R,4S)-4-fluoro-1-methylpiperidin-3-yl]amino}-1-(2,2,2-trifluoroethyl)-1H-indol-2-yl)-1,2,4-oxadiazol-5-yl]methyl}-1-(4-methyloxan-4-yl)-1H-pyrrole-3-carboxamide]",* (* = 0 μM ≤ SC150 < 0.1 μM)
15,"CC(C)c1ncc(C(=O)NCc2nc(-c3cc4c(N[C@@H]5CCN(C)C[C@@H]5F)cccc4n3CC(F)(F)F)no2)s1 [Compound 431B, N-{[3-(4-{[(3S,4R)-3-fluoro-1-methylpiperidin-4-yl]amino}-1-(2,2,2-trifluoroethyl)-1H-indol-2-yl)-1,2,4-oxadiazol-5-yl]methyl}-2-(propan-2-yl)-1,3-thiazole-5-carboxamide]",* (* = 0 μM ≤ SC150 < 0.1 μM)
16,"CN1CC[C@@H](Nc2cccc3c2cc(-c2noc(CNC(=O)c4ccc(C(C)(C)C)nc4)n2)n3CC(F)(F)F)[C@@H](F)C1 [Compound 501B, 6-tert-butyl-N-{[3-(4-{[(3S,4R)-3-fluoro-1-methylpiperidin-4-yl]amino}-1-(2,2,2-trifluoroethyl)-1H-indol-2-yl)-1,2,4-oxadiazol-5-yl]methyl}pyridine-3-carboxamide]",* (* = 0 μM ≤ SC150 < 0.1 μM)
17,"C[C@@H]1CN(C)CC[C@@H]1Nc1cccc2c1cc(-c1noc(CNC(=O)c3cnn(C(C)(C)C)c3)n1)n2CC(F)(F)F [Compound 511B, 1-tert-butyl-N-{[3-(4-{[(3R,4S)-1,3-dimethylpiperidin-4-yl]amino}-1-(2,2,2-trifluoroethyl)-1H-indol-2-yl)-1,2,4-oxadiazol-5-yl]methyl}-1H-pyrazole-4-carboxamide]",* (* = 0 μM ≤ SC150 < 0.1 μM)
18,"COCCn1cc(C(=O)NCc2nc(-c3cc4c(N[C@@H]5CCN(C)C[C@@H]5F)cccc4n3CC(F)(F)F)no2)cn1 [Compound 290B, N-{[3-(4-{[(3S,4R)-3-fluoro-1-methylpiperidin-4-yl]amino}-1-(2,2,2-trifluoroethyl)-1H-indol-2-yl)-1,2,4-oxadiazol-5-yl]methyl}-1-(2-methoxyethyl)-1H-pyrazole-4-carboxamide]",* (* = 0 μM ≤ SC150 < 0.1 μM)

# Same assay, conditions: concentration to increase DNA binding by […], incubated at either 27° C. or 29° C. for 60 min
row,Compound,SC150 (μM)
1,"CN1CC[C@H](Nc2cccc3c2cc(-c2ccc(CNc4ccc(S(C)(=O)=O)cc4)cc2)n3CC(F)(F)F)[C@H](F)C1 [Compound 44A, N-[(3R,4S)-3-fluoro-1-methylpiperidin-4-yl]-2-(4-{[(4-methanesulfonylphenyl)amino]methyl}phenyl)-1-(2,2,2-trifluoroethyl)-1H-indol-4-amine]",+ (+ = 0 μM ≤ SC150 < 2 μM)
2,"N#CC1(c2ccc(-c3cc4c(NC5CCS(=O)(=O)CC5)cccc4n3CC(F)(F)F)cc2)CC1 [Compound 26A, 1-(4-{4-[(1,1-dioxo-1λ^6-thian-4-yl)amino]-1-(2,2,2-trifluoroethyl)-1H-indol-2-yl}phenyl)cyclopropane-1-carbonitrile]",++ (++ = 2 μM ≤ SC150 < 5 μM)
3,"Cc1ccc(NCc2ccc(-c3cc4cc(CNC5CCN(C)CC5)ccc4n3CC(F)(F)F)cc2)cn1 [Compound 35A, 6-methyl-N-{[4-(5-{[(1-methylpiperidin-4-yl)amino]methyl}-1-(2,2,2-trifluoroethyl)-1H-indol-2-yl)phenyl]methyl}pyridin-3-amine]",+++ (+++ = 5 μM ≤ SC150 < 10 μM)
4,"COCC(O)CN1CCC(Nc2cccc3c2cc(-c2ccc4c(c2)NC(=O)C4)n3CC(F)(F)F)CC1 (centres unmarked) [Compound 49A, 4-{[1-(2-hydroxy-3-methoxypropyl)piperidin-4-yl]amino}-1-(2,2,2-trifluoroethyl)-2′,3′-dihydro-1H,1′H-[2,6′-biindol]-2′-one]",++ (++ = 2 μM ≤ SC150 < 5 μM)
5,"CN1CCC(NCc2ccc3c(c2)cc(-c2ccc(CNc4ccc(S(C)(=O)=O)cc4)cc2)n3CC(F)(F)F)CC1 [Compound 36A, N-{[2-(4-{[(4-methanesulfonylphenyl)amino]methyl}phenyl)-1-(2,2,2-trifluoroethyl)-1H-indol-5-yl]methyl}-1-methylpiperidin-4-amine]",++ (++ = 2 μM ≤ SC150 < 5 μM)
